From the SangsterLogP compilation

What was measured:
[1] = method code SF-AS, from Woolston, C.; Lee, J.; Swinbourne, F. (1994). Partition coefficients and chromatographic parameters of some substituted 1,3-thiazolidin-4-ones. Ind. J. Chem., Sect. B, 33(6)590-592.; conditions: pH 7.4

Compound	logP	logD [1]
O=C1CS(=O)(=O)C(c2cccc(Br)c2)N1c1ccccc1 (stereo not drawn)	1.63	–
N#Cc1ccc(C2SCC(=O)N2c2ccccc2)cc1 (stereo not drawn)	1.32	–
O=C1CSC(c2ccc([N+](=O)[O-])cc2)N1c1ccccc1 (stereo not drawn)	1.75	–
O=C1CS(=O)C(c2ccccc2)N1c1ccccc1 (stereo not drawn)	1.07	–
O=C1CS(=O)C(c2ccccc2)N1c1cccc([N+](=O)[O-])c1 (stereo not drawn)	1.09	–
COc1ccc(N2C(=O)CS(=O)C2c2ccccc2)cc1 (stereo not drawn)	1.07	–
O=C1CSC(c2cccc([N+](=O)[O-])c2)N1c1ccccc1 (stereo not drawn)	1.73	–
COc1ccc(C2SCC(=O)N2c2ccccc2)cc1 (stereo not drawn)	1.97	–
O=C1CS(=O)(=O)C(c2ccccc2)N1c1ccccc1 (stereo not drawn)	–	1.23
COc1ccc(N2C(=O)CSC2c2ccccc2)cc1 (stereo not drawn)	1.92	–
O=C1CS(=O)(=O)C(c2ccccc2)N1c1cccc([N+](=O)[O-])c1 (stereo not drawn)	1.09	–
O=C1CSC(c2ccccc2)N1c1cccc([N+](=O)[O-])c1 (stereo not drawn)	1.9	–
COc1ccc(N2C(=O)CS(=O)(=O)C2c2ccccc2)cc1 (stereo not drawn)	1.09	–
O=C1CS(=O)C(c2cccc(Br)c2)N1c1ccccc1 (stereo not drawn)	1.63	–

Further lines, results first:

logP	logD [1]	Compound
1.9	–	O=C1CSC(c2cccc(F)c2)N1c1ccccc1 (stereo not drawn)
2.56	–	O=C1CSC(c2ccccc2)N1c1ccc(Br)cc1 (stereo not drawn)
2.44	–	O=C1CSC(c2cccc(Br)c2)N1c1ccccc1 (stereo not drawn)
2.66	–	O=C1CSC(c2ccc(Br)cc2)N1c1ccccc1 (stereo not drawn)
1.96	–	COc1cccc(C2SCC(=O)N2c2ccccc2)c1 (stereo not drawn)
2.32	–	Cc1ccc(N2C(=O)CSC2c2ccccc2)cc1 (stereo not drawn)
2.52	–	O=C1CSC(c2ccc(Cl)cc2)N1c1ccccc1 (stereo not drawn)
2.3	–	Cc1cccc(C2SCC(=O)N2c2ccccc2)c1 (stereo not drawn)
2.42	–	O=C1CSC(c2ccccc2)N1c1ccc(Cl)cc1 (stereo not drawn)
1.88	–	O=C1CSC(c2ccccc2)N1c1ccccc1 (stereo not drawn)
2.58	–	O=C1CSC(c2ccccc2)N1c1cccc(Br)c1 (stereo not drawn)
1.29	–	O=C1CSC(c2ccccc2)N1c1ccc(O)cc1 (stereo not drawn)
2.48	–	Cc1ccc(C2SCC(=O)N2c2ccccc2)cc1 (stereo not drawn)
2.32	–	O=C1CSC(c2cccc(Cl)c2)N1c1ccccc1 (stereo not drawn)
